According to PubChem BioAssay (NCI):
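Method: 48-hour compound exposure of cells in 96-well plates, five concentrations, linear interpolation of endpoints. TGI denotes the concentration required for complete inhibition of growth.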

Assays:
Experiment in all cases: DTP human tumour cell line panel, 48 h
[1] = test system: 786-0 renal
[2] = test system: A498 renal
[3] = test system: A549 NSCLC
[4] = test system: ACHN renal
[5] = test system: CCRF-CEM leukemia
[6] = test system: COLO 205 colon
[7] = test system: DLD-1 colon
[8] = test system: DMS 114 small cell lung
[9] = test system: DMS 273 small cell lung
[10] = test system: EKVX NSCLC
[11] = test system: HCC-2998 colon
[12] = test system: HCT-116 colon
[13] = test system: HCT-15 colon
[14] = test system: HL-60(TB) leukemia
[15] = test system: HOP-18 NSCLC
[16] = test system: HOP-62 NSCLC
[17] = test system: HOP-92 NSCLC
[18] = test system: HT29 colon
[19] = test system: IGROV1 ovarian
[20] = test system: KM12 colon
[21] = test system: KM20L2 colon
[22] = test system: LOX IMVI melanoma
[23] = test system: LXFL 529 NSCLC
[24] = test system: M14 melanoma
[25] = test system: M19-MEL melanoma
[26] = test system: MALME-3M melanoma
[27] = test system: NCI-H226 lung
[28] = test system: NCI-H23 lung
[29] = test system: NCI-H460 lung
[30] = test system: NCI-H522 lung
[31] = test system: OVCAR-3 ovarian
[32] = test system: OVCAR-4 ovarian
[33] = test system: OVCAR-5 ovarian
[34] = test system: OVCAR-8 ovarian
[35] = test system: RXF 393 renal
[36] = test system: RXF-631 renal
[37] = test system: SF-268 CNS
[38] = test system: SF-295 CNS
[39] = test system: SF-539 CNS
[40] = test system: SK-MEL-2 melanoma
[41] = test system: SK-MEL-28 melanoma
[42] = test system: SK-MEL-5 melanoma
[43] = test system: SK-OV-3 ovarian
[44] = test system: SN12C renal
[45] = test system: SNB-19 CNS
[46] = test system: SNB-75 CNS
[47] = test system: SNB-78 CNS
[48] = test system: SW-620 colon
[49] = test system: TK-10 renal
[50] = test system: U251 CNS
[51] = test system: UACC-257 melanoma
[52] = test system: UACC-62 melanoma
[53] = test system: UO-31 renal
[54] = test system: XF 498 CNS
[55] = test system: CAKI-1 renal
[56] = test system: K-562 leukemia
[57] = test system: MOLT-4 leukemia
[58] = test system: RPMI-8226 leukemia
[59] = test system: SR leukemia

Measured: TGI

CCCCCCCCCCCCCP(=O)(O)O
not listed: [55] | [56] | [57] | [58] | [59]
> 100 µM: all other assays above

O=C1COc2cc(NC(=S)Nc3ccccc3)ccc2N1
not listed: [2]
> 100 µM: all other assays above
